Data reported in article PMC4969531, “Enhanced Absorption Study of Ginsenoside Compound K (20-O-β-(D-Glucopyranosyl)-20(S)-protopanaxadiol) after Oral Administration of Fermented Red Ginseng Extract (HYFRG™) in Healthy Korean Volunteers and Rats” (Evidence-based Complementary and Alternative Medicine : eCAM, 2016).

Legend:
[1] = Stability of compound K in human plasma (bench-top, refrigerator, freezer, freeze-thaw, extracted samples); format: in vitro ADME; settings: n = 3; for Stability of extracted, autosampler (4°C), 20 h: extracted plasma sample; for Compound K in plasma, 4°C, 17 h / Compound K in plasma, room temperature, 17 h / Compound K in plasma, −80°C, 17 h / Freeze-thaw stability, three cycles, −80°C: human plasma
Procedure: The LC-MS/MS method to determine compound K in human and rat plasma was validated and established in terms of specificity, sensitivity, linearity, accuracy, precision, recovery, matrix effect, and stability according to the bioanalytical method validation guidelines published by Korea Food and Drug Administration (KFDA) and USFDA [23, 24]. The specificity of the method towards endogenous plasma matrix substances was assessed in double blank human plasma (without compound K and IS). Double blank samples from six different lots of human blank plasma were tested for the presence of endogenous substances, which may interfere with compound K and IS using described above procedures and chromatographic/spectroscopic conditions. Then, the chromatograms obtained from the sample spiked with compound K at lower limit of quantitation (LLOQ) and IS and actual plasma samples from a volunteer after oral administration of compound K were compared with those obtained from blank samples. The calibration curve was constructed by plotting the peak area ratios (y) of compound K to IS against the spiked concentrations (x) of compound K. Linearity was assessed by weighted (1/x) least squares regression analysis. LLOQ was defined as the lowest concentration on the calibration curve. It should be quantified with an acceptable bias within ±20% and a CV no greater than 20%. The LLOQ was determined as the concentrations with a signal to noise (S/N) ratio of 10. The intra- and interday precision and accuracy assessments were performed on the same day (n = 5, at each concentration) and on three consecutive days at four concentrations ([…]). Precision is expressed as a coefficient of variance (CV) at each concentration. The accuracy of the assay was defined as a percentage of the measured concentration over the theoretical concentration. The acceptance criterion recommended by KFDA and USFDA for each back-calculated standard concentration is 20% deviation from the nominal for LLOQ and 15% for all others (KFDA 2013, USFDA 2013). The relative recovery, absolute matrix effect, and process efficiency were determined at three QC concentrations (3, 300, and 800 ng/mL, n = 3) of compound K and IS (500 ng/mL, n = 9). The relative recovery was measured by comparing the peak areas obtained from plasma samples spiked before extraction with those from plasma samples spiked after extraction. The absolute matrix effect was measured by comparing the peak response of plasma samples spiked after extraction with that of pure standards containing equivalent amounts of compound K and IS prepared in mobile phase. The process efficiency wasmeasured by comparing the peak response of plasma samples spiked before extraction with that of the pure standards containing equivalent amounts of compound K and IS prepared in mobile phase. […] The predicted concentrations of compound K at 3, 300, and 800 ng/mL samples differed by not more than 15% of the nominal concentrations in a set of stability tests, namely, in injector (20 h), bench-top (17 h), three repeated freeze-thaw cycles, and freezer stability at −80°C for 17 h. […] Although several analytical methods have been used to determine compound K concentrations in human plasma with LC-MS/MS using solid phase extraction or protein precipitation, we developed the fully validated analytical method optimized for our laboratory settings to meet both KFDA and USFDA guidelines for validating a bioanalytical method. Our analytical method was successfully used to evaluate the comparative pharmacokinetics of two red ginseng HYFRG or RG extracts in Koreans.

[2] = Stability of compound K working stock solution in methanol; format: physicochemical; settings: n = 3
Procedure: Stock solutions of compound K and IS were prepared separately by dissolving the accurately weighed compounds in methanol for a final concentration of 1000 μg/mL. The prepared stock solutions were stored in −80°C when not in use. Working solutions of compound K were prepared by serial dilution of the stock solution in methanol. Calibration standards were prepared by spiking 10 μL of the appropriate standard solutions to 190 μL of blank plasma for concentrations of 1, 5, 10, 50, 100, 500, and 1000 ng/mL. QC samples were prepared in the same manner as the calibration standards, for low, middle, and high concentrations of 3, 300, and 800 ng/mL. IS working solution (5 μg/mL) for routine use was freshly prepared by diluting IS stock solution in methanol. The standard and QC samples were extracted on each analysis run using the same procedure described below. […] The specificity of the method towards endogenous plasma matrix substances was assessed in double blank human plasma (without compound K and IS). […] Then, the chromatograms obtained from the sample spiked with compound K at lower limit of quantitation (LLOQ) and IS and actual plasma samples from a volunteer after oral administration of compound K were compared with those obtained from blank samples. The calibration curve was constructed by plotting the peak area ratios (y) of compound K to IS against the spiked concentrations (x) of compound K. Linearity was assessed by weighted (1/x) least squares regression analysis. […] It should be quantified with an acceptable bias within ±20% and a CV no greater than 20%. The LLOQ was determined as the concentrations with a signal to noise (S/N) ratio of 10. […] Precision is expressed as a coefficient of variance (CV) at each concentration. The accuracy of the assay was defined as a percentage of the measured concentration over the theoretical concentration. The acceptance criterion recommended by KFDA and USFDA for each back-calculated standard concentration is 20% deviation from the nominal for LLOQ and 15% for all others (KFDA 2013, USFDA 2013). […]

## CC(C)=CCCC(C)(OC1OC(CO)C(O)C(O)C1O)C1CCC2(C)C1C(O)CC1C3(C)CCC(O)C(C)(C)C3CCC12C [Compound K, 20-O-β-(D-glucopyranosyl)-20(S)-protopanaxadiol]
[1]; nominal 3 ng/mL
  Stability of extracted, autosampler (4°C), 20 h: 110.43 ± 12.89%
  Compound K in plasma, 4°C, 17 h: 112.11 ± 5.08%
  Compound K in plasma, room temperature, 17 h: 110.12 ± 3.01%
  Compound K in plasma, −80°C, 17 h: 115.04 ± 2.66%
  Freeze-thaw stability, three cycles, −80°C: 109.09 ± 7.07%
[1]; nominal 300 ng/mL
  Stability of extracted, autosampler (4°C), 20 h: 102.96 ± 4.83%
  Compound K in plasma, 4°C, 17 h: 110.62 ± 2.31%
  Compound K in plasma, room temperature, 17 h: 106.83 ± 3.20%
  Compound K in plasma, −80°C, 17 h: 108.30 ± 1.60%
  Freeze-thaw stability, three cycles, −80°C: 109.70 ± 2.38%
[1]; nominal 800 ng/mL
  Stability of extracted, autosampler (4°C), 20 h: 103.46 ± 3.48%
  Compound K in plasma, 4°C, 17 h: 107.40 ± 2.45%
  Compound K in plasma, room temperature, 17 h: 107.54 ± 0.20%
  Compound K in plasma, −80°C, 17 h: 104.95 ± 1.42%
  Freeze-thaw stability, three cycles, −80°C: 106.13 ± 5.46%
[2]; nominal 3 ng/mL
  Working stock solution stability, room temperature, 6 h: 89.08 ± 3.89%
[2]; nominal 300 ng/mL
  Working stock solution stability, room temperature, 6 h: 89.11 ± 7.13%
[2]; nominal 800 ng/mL
  Working stock solution stability, room temperature, 6 h: 96.13 ± 7.43%
